Laboratory results as given in patent US7776856B2, “Pharmaceutical compounds” (F. Hoffman-La Roche AG, priority 2004, dated 2010).

Test system: Caco-2 cells
Assay: Caco-2 permeability
Type: in vitro ADME
Settings: Caco-2 bidirectional assay
Procedure: (iii) Caco-2 Permeability
Caco-2 cells were seeded onto Millipore Multiscreen plates at 1×10^5 cells/cm^2, and were cultured for 20 days. Assessment of compound permeability was subsequently conducted. The compounds were applied to the apical surface (A) of cell monolayers and compound permeation into the basolateral (B) compartment was measured. This was performed in the reverse direction (B-A) to investigate active transport. A permeability coefficient value, Papp, for each compound, a measure of the rate of permeation of the compound across the membrane, was calculated. Compounds were grouped into low Papp</=1.0×10^6 cm/s) or high Papp>/=1.0×10^6cm/s) absorption potential based on comparison with control compounds with established human absorption.
For assessment of a compound's ability to undergo active efflux, the ratio of basolateral (B) to apical (A) transport compared with A to B was determined. Values of B−A/A−B>/=1.0 indicated the occurrence of active cellular efflux. All of the compounds tested through the Caco-2 permeability screen had Papp values >/=[…].

CN1CCN(Cc2cc3nc(-c4cccc(O)c4)nc(N4CCOCC4)c3s2)CC1 [PI540]
B−A/A−B asymmetry index: less than 1.0
